Columns and labels:
[1] = Body weight and toxicity in the orthotopic HepG2-GFP mouse model; format: in vivo, nude mice; details: intra-peritoneal, low (2.5 mg/kg) or high (5 mg/kg) dose
[2] = Plasma concentration and TK after 30-min IV infusion at 2 mg/kg; format: in vivo, Cynomolgus monkeys; details: Cynomolgus, cynomolgus monkey, plasma, iv, 2 mg/kg
Procedure: (§1) TH 3423 and TH 3424 were tested in […] naïve monkeys (1 male and one female for each compound at 2 mg/kg) with 30-min intravenous infusion, TK sampling: on Day 1 and Day 15: 0.25, 0.5, 0.75, 1 and 2 hr post infusion initiation. Serum chemistry and hematology: pre-dose (Day 1), day 5, day 8 (pre-dose), day 15 (pre-dose), day 22 and day 28. Clinical observation: Daily during the study, total 35 days. Food consumption: Daily during the study, total 35 days. Bodyweight measurement: Twice weekly for five weeks.

[3] = Hematology in monkeys, 2 mg/kg 30-min IV infusion; format: in vivo, Cynomolgus monkeys
Procedure: as §1

## C[C@H](OP(=O)(N1CC1)N1CC1)c1ccc([N+](=O)[O-])c(Oc2cccc(C(=O)N(C)C)c2)c1 (single isomer, unassigned) [TH3424]
[1]
  toxicity to the experimental mice: no obvious toxicity
[1]; listed as TH2870-2
  toxicity to the experimental mice: no obvious acute toxicity
[2]; both sexes, Mean
  AUC(0-inf): 1460 ng·h/mL
  AUC(0-t): 1460 ng·h/mL
[2]; female
  AUC(0-inf): 1200 ng·h/mL
  AUC(0-t): 1200 ng·h/mL
[2]; male
  AUC(0-inf): 1730 ng·h/mL
  AUC(0-t): 1720 ng·h/mL
[3]; female, Day 1 (pre-dose)
  % BASO: 0.1%
  % EOS: 3.3%
  % MONO: 0.9%
  % NEUT: 72.8%
  HCT: 35.7%
  HGB: 118 g/L
  LYM: 22.9%
  MCH: 25.4 pg
  MCHC: 331 g/L
  MCV: 76.8 fL
  MPV: 13 fL
  PCT: 0.277%
  PDW: 15.4
  PLT: 2.13e+11 L⁻¹
  RBC: 4.65e+12 L⁻¹
  RDW-CV: 11.5%
  RDW-SD: 37.4 fL
  WBC: 1.164e+10 L⁻¹
  abs_basos: 1e+07 L⁻¹
  abs_eos: 3.9e+08 L⁻¹
  abs_lymphs: 2.66e+09 L⁻¹
  abs_monos: 1.1e+08 L⁻¹
  abs_neuts: 8.47e+09 L⁻¹
[3]; female, Day 8 (pre-dose)
  % EOS: 1.50%
  % MONO: 0.20%
  % NEUT: 49.10%
  HCT: 39.30%
  HGB: 130.00 g/L
  LYM: 18.90%
  MCH: 25.30 pg
  MCHC: 331.00 g/L
  MCV: 76.30 fL
  MPV: 12.80 fL
  PCT: 0.50%
  PDW: 15.50
  PLT: 3.9e+11 L⁻¹
  RBC: 5.15e+12 L⁻¹
  RDW-CV: 11.20%
  RDW-SD: 36.20 fL
  WBC: 1.691e+10 L⁻¹
  abs_basos: 5.13e+09 L⁻¹
  abs_eos: 2.6e+08 L⁻¹
  abs_lymphs: 3.2e+09 L⁻¹
  abs_monos: 3e+07 L⁻¹
  abs_neuts: 8.29e+09 L⁻¹
[3]; female, Day 15 (pre-dose)
  % BASO: 0.90%
  % EOS: 1.70%
  % MONO: 3.00%
  % NEUT: 80.8%
  HCT: 36.3%
  HGB: 125 g/L
  LYM: 13.60%
  MCH: 25.3 pg
  MCHC: 344 g/L
  MCV: 73.5 fL
  MPV: 12.5 fL
  PCT: 0.275%
  PDW: 16.2
  PLT: 2.21e+11 L⁻¹
  RBC: 4.94e+12 L⁻¹
  RDW-CV: 11.0%
  RDW-SD: 34.1 fL
  WBC: 2.07e+10 L⁻¹
  abs_basos: 1.9e+08 L⁻¹
  abs_eos: 3.7e+08 L⁻¹
  abs_lymphs: 2.8e+09 L⁻¹
  abs_monos: 6.2e+08 L⁻¹
  abs_neuts: 1.67e+10 L⁻¹
[3]; male, Day 1 (pre-dose)
  % BASO: 0.0%
  % EOS: 2.6%
  % MONO: 0.1%
  % NEUT: 58.4%
  HCT: 34.9%
  HGB: 117 g/L
  LYM: 38.9%
  MCH: 25.7 pg
  MCHC: 335 g/L
  MCV: 76.7 fL
  MPV: 11.1 fL
  PCT: 0.267%
  PDW: 15.5
  PLT: 2.4e+11 L⁻¹
  RBC: 4.55e+12 L⁻¹
  RDW-CV: 11.8%
  RDW-SD: 38.1 fL
  WBC: 4.71e+09 L⁻¹
  abs_basos: 0 L⁻¹
  abs_eos: 1.2e+08 L⁻¹
  abs_lymphs: 1.84e+09 L⁻¹
  abs_monos: 0 L⁻¹
  abs_neuts: 2.75e+09 L⁻¹
[3]; male, Day 8 (pre-dose)
  % BASO: 5.30%
  % EOS: 1.10%
  % MONO: 13.10%
  % NEUT: 34.60%
  HCT: 35.20%
  HGB: 117.00 g/L
  LYM: 45.90%
  MCH: 25.50 pg
  MCHC: 332.00 g/L
  MCV: 76.70 fL
  MPV: 10.30 fL
  PCT: 0.51%
  PDW: 15.30
  PLT: 4.96e+11 L⁻¹
  RBC: 4.59e+12 L⁻¹
  RDW-CV: 11.50%
  RDW-SD: 37.20 fL
  WBC: 9.15e+09 L⁻¹
  abs_basos: 4.9e+08 L⁻¹
  abs_eos: 1e+08 L⁻¹
  abs_lymphs: 4.19e+09 L⁻¹
  abs_monos: 1.21e+09 L⁻¹
  abs_neuts: 3.16e+09 L⁻¹
[3]; male, Day 15 (pre-dose)
  % BASO: 0.10%
  % EOS: 3.10%
  % MONO: 4.40%
  % NEUT: 65.7%
  HCT: 37.4%
  HGB: 127 g/L
  LYM: 26.70%
  MCH: 25.3 pg
  MCHC: 340 g/L
  MCV: 74.5 fL
  MPV: 9.5 fL
  PCT: 0.593%
  PDW: 15.4
  PLT: 6.23e+11 L⁻¹
  RBC: 5.02e+12 L⁻¹
  RDW-CV: 11.5%
  RDW-SD: 36.3 fL
  WBC: 1.326e+10 L⁻¹
  abs_basos: 2e+07 L⁻¹
  abs_eos: 4.1e+08 L⁻¹
  abs_lymphs: 3.54e+09 L⁻¹
  abs_monos: 5.9e+08 L⁻¹
  abs_neuts: 8.7e+09 L⁻¹

Reference: US10409869B2, “(R)- and (S)-1-(3-(3-N,N-dimethylaminocarbonyl)phenoxyl-4-nitrophenyl)-1-ethyl-N,N'-bis (ethylene)phosphoramidate, compositions and methods for their use and preparation” (OBI Pharma, Inc., priority 2015, dated 2019)
